This passage reports EC50 results from patent publication US20140213513A1 (Sanofi, priority 2012, published 2014).

Holding throughout (assay type): cell-based
What all share (conditions): Table 7; cAMP formation
(In general: cAMP levels reflect the balance of adenylyl cyclase and phosphodiesterase activity.)

Assay [1] addresses T1, human GLP-1 receptor (hGLP-1 R) (Homo sapiens, UniProt P43220).
T1 construct: expressed in transfected cells
The experiment in a line: cAMP response of HEK-293 cells stably expressing human GLP-1 receptor (HTRF). The method, boiled down: (§1)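 cAMP accumulation was read by homogeneous time-resolved fluorescence after 30 min compound exposure at room temperature. Stable receptor-expressing HEK-293 cells, 400000 cells/ml, were used in HEPES-buffered HBSS containing 0.1% BSA and the phosphodiesterase inhibitor IBMX (2 mM).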
In general terms: In TR-FRET formats the signal depends on donor and acceptor labels being close together.

Assay [2] deals with T2, human glucagon receptor (hGLUC R) (Homo sapiens, UniProt P47871).
T2 construct: expressed in transfected cells
The experiment in a line: cAMP response of HEK-293 cells stably expressing human glucagon receptor (HTRF). The method, boiled down:
as §1

The target in assay [3] is T3, human GIP receptor (hGIP R) (Homo sapiens, UniProt P48546).
T3 construct: expressed in transfected cells
T3 sequence (P48546 22-466): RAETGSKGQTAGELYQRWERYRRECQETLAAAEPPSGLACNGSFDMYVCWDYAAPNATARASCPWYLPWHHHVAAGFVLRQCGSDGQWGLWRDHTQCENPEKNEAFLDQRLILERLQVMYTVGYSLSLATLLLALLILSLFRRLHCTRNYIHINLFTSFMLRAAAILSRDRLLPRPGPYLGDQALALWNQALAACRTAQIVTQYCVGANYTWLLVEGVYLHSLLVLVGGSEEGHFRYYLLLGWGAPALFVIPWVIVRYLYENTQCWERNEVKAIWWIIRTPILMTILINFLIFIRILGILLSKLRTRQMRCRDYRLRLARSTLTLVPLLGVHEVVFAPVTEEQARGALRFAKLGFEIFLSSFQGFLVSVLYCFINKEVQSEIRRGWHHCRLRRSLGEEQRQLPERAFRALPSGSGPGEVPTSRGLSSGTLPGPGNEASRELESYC
The experiment in a line: cAMP response of HEK-293 cells stably expressing human GIP receptor (HTRF). A digest of the protocol: as §1

Structures are written as SMILES. *1 amine or outer side, *2 acyl side, *3 side chain or, on linkers, in order; H or OH if unused. Where a SMILES comes first, the peptide text is derived from it. Side-chain parts run from the residue outwards. [ ]: non-standard residue; d: D form. The star is where a group is joined. γGlu = O=C(O)[C@H](CCC(=O)[*:2])N[*:1]; Stearoyl = CCCCCCCCCCCCCCCCCC(=O)*; Palmitoyl = CCCCCCCCCCCCCCCC(=O)*; Aib = CC(C)(N)C(=O)O

T2 sequence (P47871 26-477): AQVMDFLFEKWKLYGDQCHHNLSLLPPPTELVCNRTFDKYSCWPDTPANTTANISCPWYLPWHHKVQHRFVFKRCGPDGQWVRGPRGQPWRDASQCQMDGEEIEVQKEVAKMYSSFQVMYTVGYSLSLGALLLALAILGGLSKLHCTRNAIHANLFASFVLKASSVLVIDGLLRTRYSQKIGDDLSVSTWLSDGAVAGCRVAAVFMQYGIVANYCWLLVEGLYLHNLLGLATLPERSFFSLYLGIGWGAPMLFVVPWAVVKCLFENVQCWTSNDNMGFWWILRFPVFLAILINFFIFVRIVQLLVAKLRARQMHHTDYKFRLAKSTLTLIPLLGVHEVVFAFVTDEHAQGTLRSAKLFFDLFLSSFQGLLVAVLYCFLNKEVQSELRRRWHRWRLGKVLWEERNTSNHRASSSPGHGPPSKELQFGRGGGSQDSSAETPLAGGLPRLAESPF
T1 sequence (P43220 24-463): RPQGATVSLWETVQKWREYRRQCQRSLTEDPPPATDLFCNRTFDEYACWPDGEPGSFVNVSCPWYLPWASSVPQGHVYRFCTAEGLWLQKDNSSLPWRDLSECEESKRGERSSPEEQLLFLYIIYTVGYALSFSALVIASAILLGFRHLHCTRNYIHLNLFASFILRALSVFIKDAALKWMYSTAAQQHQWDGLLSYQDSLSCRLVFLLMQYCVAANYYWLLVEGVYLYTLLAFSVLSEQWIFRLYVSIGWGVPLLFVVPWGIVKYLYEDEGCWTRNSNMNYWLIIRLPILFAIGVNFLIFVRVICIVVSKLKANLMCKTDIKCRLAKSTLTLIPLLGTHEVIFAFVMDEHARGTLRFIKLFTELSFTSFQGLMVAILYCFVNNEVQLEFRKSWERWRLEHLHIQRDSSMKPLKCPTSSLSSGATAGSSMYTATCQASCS

As to `CCCCCCCCCCCCCCCC(=O)N[C@@H](CCC(=O)NCCCC[C@H](NC(=O)[C@H](CCC(N)=O)NC(=O)[C@H](CCCCN)NC(=O)[C@H](CO)NC(=O)[C@H](CC(C)C)NC(=O)[C@H](CC(=O)O)NC(=O)[C@H](CO)NC(=O)[C@@H](NC(=O)[C@H](Cc1ccccc1)NC(=O)[C@@H](NC(=O)CNC(=O)[C@H](CCC(=O)O)NC(=O)C(C)(C)NC(=O)[C@@H](N)Cc1ccc(O)cc1)[C@@H](C)O)[C@@H](C)O)C(=O)N[C@@H](CC(=O)O)C(=O)N[C@@H](CCCCN)C(=O)N[C@@H](CCCNC(=N)N)C(=O)N[C@@H](C)C(=O)N[C@@H](C)C(=O)N[C@@H](CCC(N)=O)C(=O)N[C@@H](CC(=O)O)C(=O)N[C@@H](Cc1ccccc1)C(=O)N[C@H](C(=O)N[C@@H](CCC(=O)O)C(=O)N[C@@H](Cc1c[nH]c2ccccc12)C(=O)N[C@@H](CC(C)C)C(=O)N[C@@H](CCCCN)C(=O)N[C@@H](CC(N)=O)C(=O)NCC(=O)NCC(=O)N1CCC[C@H]1C(=O)N[C@@H](CO)C(=O)N[C@@H](CO)C(=O)NCC(=O)N[C@@H](C)C(=O)N1CCC[C@H]1C(=O)N1CCC[C@H]1C(=O)N1CCC[C@H]1C(=O)N[C@@H](CO)C(N)=O)[C@@H](C)CC)C(=O)O` [SEQ ID NO: 30, Y-Aib-E-G-T-F-T-S-D-L-S-K-Q-K(yE-x53)-DKRAAQDFIEWLKNGGPSSGAPPPS-NH2] (H-Y[Aib]EGTFTSDLSKQK([γGlu-Palmitoyl])DKRAAQDFIEWLKNGGPSSGAPPPS-NH2), the EC50 in assay [1] was determined as 0.005 nM; in assay [2], 1.45 nM; in assay [3], 0.0163 nM.

As for `CCCCCCCCCCCCCCCC(=O)N[C@@H](CCC(=O)NCCCC[C@H](NC(=O)[C@H](CCC(N)=O)NC(=O)[C@@H](NC(=O)[C@H](CO)NC(=O)[C@H](CC(C)C)NC(=O)[C@H](CC(=O)O)NC(=O)[C@H](CO)NC(=O)[C@@H](NC(=O)[C@H](Cc1ccccc1)NC(=O)[C@@H](NC(=O)CNC(=O)[C@H](CCC(N)=O)NC(=O)C(C)(C)NC(=O)[C@@H](N)Cc1ccc(O)cc1)[C@@H](C)O)[C@@H](C)O)[C@@H](C)CC)C(=O)N[C@@H](CC(=O)O)C(=O)N[C@@H](CO)C(=O)N[C@@H](CCCNC(=N)N)C(=O)N[C@@H](CCCNC(=N)N)C(=O)N[C@@H](C)C(=O)N[C@@H](CCC(N)=O)C(=O)N[C@@H](CC(=O)O)C(=O)N[C@@H](Cc1ccccc1)C(=O)N[C@H](C(=O)N[C@@H](CCC(=O)O)C(=O)N[C@@H](Cc1c[nH]c2ccccc12)C(=O)N[C@@H](CC(C)C)C(=O)N[C@@H](CCCCN)C(=O)N[C@@H](C)C(=O)NCC(=O)NCC(=O)N1CCC[C@H]1C(=O)N[C@@H](CO)C(=O)N[C@@H](CO)C(=O)NCC(=O)N[C@@H](C)C(=O)N1CCC[C@H]1C(=O)N1CCC[C@H]1C(=O)N1CCC[C@H]1C(=O)N[C@@H](CO)C(N)=O)[C@@H](C)CC)C(=O)O` [SEQ ID NO: 52, Y-Aib-Q-G-T-F-T-S-D-L-S-I-Q-K(yE-x53)-DSRRAQDFIEWLKAGGPSSGAPPPS-NH2] (H-Y[Aib]QGTFTSDLSIQK([γGlu-Palmitoyl])DSRRAQDFIEWLKAGGPSSGAPPPS-NH2), the EC50 in assay [1] came to 0.0256 nM; in assay [2], 0.0133 nM; in assay [3], 0.182 nM.

For `CCCCCCCCCCCCCCCCCC(=O)N[C@@H](CCC(=O)NCCCC[C@H](NC(=O)[C@H](CCC(N)=O)NC(=O)[C@H](CCCCN)NC(=O)[C@H](CO)NC(=O)[C@H](CC(C)C)NC(=O)[C@H](CC(=O)O)NC(=O)[C@H](CO)NC(=O)[C@@H](NC(=O)[C@H](Cc1ccccc1)NC(=O)[C@@H](NC(=O)CNC(=O)[C@H](CCC(N)=O)NC(=O)C(C)(C)NC(=O)[C@@H](N)Cc1ccc(O)cc1)[C@@H](C)O)[C@@H](C)O)C(=O)N[C@@H](CC(=O)O)C(=O)N[C@@H](CO)C(=O)N[C@@H](CCCCN)C(=O)N[C@@H](C)C(=O)N[C@@H](C)C(=O)N[C@@H](CCC(N)=O)C(=O)N[C@@H](CC(=O)O)C(=O)N[C@@H](Cc1ccccc1)C(=O)N[C@H](C(=O)N[C@@H](CCC(=O)O)C(=O)N[C@@H](Cc1c[nH]c2ccccc12)C(=O)N[C@@H](CC(C)C)C(=O)N[C@@H](CCCCN)C(=O)N[C@@H](C)C(=O)NCC(=O)NCC(=O)N1CCC[C@H]1C(=O)N[C@@H](CO)C(=O)N[C@@H](CO)C(=O)NCC(=O)N[C@@H](C)C(=O)N1CCC[C@H]1C(=O)N1CCC[C@H]1C(=O)N1CCC[C@H]1C(=O)N[C@@H](CO)C(N)=O)[C@@H](C)CC)C(=O)O` [SEQ ID NO: 41, Y-Aib-Q-G-T-F-T-S-D-L-S-K-Q-K(yE-x70)-DSKAAQDFIEWLKAGGPSSGAPPPS-NH2] (H-Y[Aib]QGTFTSDLSKQK([γGlu-Stearoyl])DSKAAQDFIEWLKAGGPSSGAPPPS-NH2), the half-maximal effective concentration (EC50) in assay [1] was determined as 0.0241 nM; in assay [2], 0.0265 nM; in assay [3], 0.186 nM.

In the case of `CCCCCCCCCCCCCCCC(=O)N[C@@H](CCC(=O)NCCCC[C@H](NC(=O)[C@H](CCC(N)=O)NC(=O)[C@@H](NC(=O)[C@H](CO)NC(=O)[C@H](CC(C)C)NC(=O)[C@H](CC(=O)O)NC(=O)[C@H](CO)NC(=O)[C@@H](NC(=O)[C@H](Cc1ccccc1)NC(=O)[C@@H](NC(=O)CNC(=O)[C@H](CCC(N)=O)NC(=O)C(C)(C)NC(=O)[C@@H](N)Cc1ccc(O)cc1)[C@@H](C)O)[C@@H](C)O)[C@@H](C)CC)C(=O)N[C@@H](CC(=O)O)C(=O)N[C@@H](CCC(=O)O)C(=O)N[C@@H](CCCNC(=N)N)C(=O)N[C@@H](C)C(=O)N[C@@H](C)C(=O)N[C@@H](CCCCN)C(=O)N[C@@H](CC(=O)O)C(=O)N[C@@H](Cc1ccccc1)C(=O)N[C@H](C(=O)N[C@@H](CCC(=O)O)C(=O)N[C@@H](Cc1c[nH]c2ccccc12)C(=O)N[C@@H](CC(C)C)C(=O)N[C@@H](CCCCN)C(=O)N[C@@H](C)C(=O)NCC(=O)NCC(=O)N1CCC[C@H]1C(=O)N[C@@H](CO)C(=O)N[C@@H](CO)C(=O)NCC(=O)N[C@@H](C)C(=O)N1CCC[C@H]1C(=O)N1CCC[C@H]1C(=O)N1CCC[C@H]1C(=O)N[C@@H](CO)C(N)=O)[C@@H](C)CC)C(=O)O` [SEQ ID NO: 35, Y-Aib-Q-G-T-F-T-S-D-L-S-I-Q-K(yE-x53)-DERAAKDFIEWLKAGGPSSGAPPPS-NH2] (H-Y[Aib]QGTFTSDLSIQK([γGlu-Palmitoyl])DERAAKDFIEWLKAGGPSSGAPPPS-NH2), the EC50 was 0.0035 nM in assay [1], 0.123 nM in assay [2] and 0.0182 nM in assay [3].

With `CCCCCCCCCCCCCCCC(=O)N[C@@H](CCC(=O)NCCCC[C@H](NC(=O)[C@H](CCC(N)=O)NC(=O)[C@@H](NC(=O)[C@H](CO)NC(=O)[C@H](CC(C)C)NC(=O)[C@H](CC(=O)O)NC(=O)[C@H](CO)NC(=O)[C@@H](NC(=O)[C@H](Cc1ccccc1)NC(=O)[C@@H](NC(=O)CNC(=O)[C@H](CCC(N)=O)NC(=O)C(C)(C)NC(=O)[C@@H](N)Cc1ccc(O)cc1)[C@@H](C)O)[C@@H](C)O)[C@@H](C)CC)C(=O)N[C@@H](CCC(=O)O)C(=O)N[C@@H](CCCCN)C(=O)N[C@@H](CCCNC(=N)N)C(=O)N[C@@H](C)C(=O)NC(C)(C)C(=O)NC(C)(C)C(=O)N[C@@H](CCC(=O)O)C(=O)N[C@@H](Cc1ccccc1)C(=O)N[C@H](C(=O)N[C@@H](CCC(=O)O)C(=O)N[C@@H](Cc1c[nH]c2ccccc12)C(=O)N[C@@H](CC(C)C)C(=O)N[C@@H](CCCCN)C(=O)N[C@@H](CC(N)=O)C(=O)N[C@H](C(=O)NCC(=O)N1CCC[C@H]1C(=O)N[C@@H](CO)C(=O)N[C@@H](CO)C(=O)NCC(=O)N[C@@H](C)C(=O)N1CCC[C@H]1C(=O)N1CCC[C@H]1C(=O)N1CCC[C@H]1C(=O)N[C@@H](CO)C(N)=O)[C@@H](C)O)[C@@H](C)CC)C(=O)O` [SEQ ID NO: 22, Y-Aib-Q-G-T-F-T-S-D-L-S-I-Q-K(yE-x53)-E-K-R-A-Aib-Aib-E-F-I-E-W-L-K-N-T-G-P-S-S-G-A-P-P-P-S-NH2] (H-Y[Aib]QGTFTSDLSIQK([γGlu-Palmitoyl])EKRA[Aib][Aib]EFIEWLKNTGPSSGAPPPS-NH2), the half-maximal effective concentration (EC50) was found to be 0.0085 nM in assay [1], 2.21 nM in assay [2] and 0.102 nM in assay [3].

Consider `CCCCCCCCCCCCCCCCCC(=O)N[C@@H](CCC(=O)NCCCC[C@H](NC(=O)[C@H](CCC(N)=O)NC(=O)[C@@H](NC(=O)[C@H](CO)NC(=O)[C@H](CC(C)C)NC(=O)[C@H](CC(=O)O)NC(=O)[C@H](CO)NC(=O)[C@@H](NC(=O)[C@H](Cc1ccccc1)NC(=O)[C@@H](NC(=O)CNC(=O)[C@H](CCC(=O)O)NC(=O)C(C)(C)NC(=O)[C@@H](N)Cc1ccc(O)cc1)[C@@H](C)O)[C@@H](C)O)[C@@H](C)CC)C(=O)N[C@@H](CCC(=O)O)C(=O)N[C@@H](CO)C(=O)N[C@@H](CCCCN)C(=O)N[C@@H](C)C(=O)N[C@@H](C)C(=O)NC(C)(C)C(=O)N[C@@H](CCC(=O)O)C(=O)N[C@@H](Cc1ccccc1)C(=O)N[C@H](C(=O)N[C@@H](CCC(=O)O)C(=O)N[C@@H](Cc1c[nH]c2ccccc12)C(=O)N[C@@H](CC(C)C)C(=O)N[C@@H](CCCCN)C(=O)N[C@@H](C)C(=O)NCC(=O)NCC(=O)N1CCC[C@H]1C(=O)N[C@@H](CO)C(=O)N[C@@H](CO)C(=O)NCC(=O)N[C@@H](C)C(=O)N1CCC[C@H]1C(=O)N1CCC[C@H]1C(=O)N1CCC[C@H]1C(=O)N[C@@H](CO)C(N)=O)[C@@H](C)CC)C(=O)O` [SEQ ID NO: 29, Y-Aib-E-G-T-F-T-S-D-L-S-I-Q-K(yE-x70)-E-S-K-A-A-Aib-E-F-I-E-W-L-K-A-G-G-P-S-S-G-A-P-P-P-S-NH2] (H-Y[Aib]EGTFTSDLSIQK([γGlu-Stearoyl])ESKAA[Aib]EFIEWLKAGGPSSGAPPPS-NH2), for which the EC50 is 0.0072 nM in assay [1], 15 nM in assay [2] and 0.013 nM in assay [3].

Broadly, the EC50 is the midpoint of the concentration-response curve. Higher therefore signals lower potency in that assay.
